# Patent publication US6699676B1, “Uses of ouabain and ouabain-like molecules in apoptosis related pathologies” (Corporation du Centre de Recherche du Centre, Hospitalier …, priority 1999, dated 2004)
# What was measured:
# VSMC-E1A [1] = assay: Intracellular Na+ and K+ content in VSMC-E1A; assay type: cell-based, rat; conditions: for Intracellular cations K^+i / Intracellular cations Na^+i: ouabain-treated VSMC-E1A, 1 mM, 6 hours
# Description: (§1) FIG. 1. Kinetics of modulation of intracellular Na^+ (1, 2) and K^+ (3, 4) content by ouabain in VSMC-E1A (1, 3) and Jurkat cells (2, 4). Cells were preincubated for 24 hours in the presence of 10% calf serum in control medium consisting of 91 mM NaCl, 5 mM KCl, 0.9 mM NaH2PO4, 44 mM NaHCO3, 1.8 mM CaCl2, 0.8 mM MgCl2, 33 mM HEPES and 5 mM D-glucose (pH 7.4) with 2 μCi/ml of ^22Na or 0.5 μCi/ml ^86Rb, and 1 mM ouabain was added at the time interval indicated by the arrow. At specific time-points, intracellular Na^+ and K content + was measured as described in Experimental Procedures. Mean values±S.E. obtained in experiments performed in quadruplicate (VSMC-E1A) or triplicate (Jurkat cells) are given.
# To estimate chromatin cleavage, cells were incubated for 1 hr in the presence of 10% calf serum (CS) in the control solution (DMEM, [Na^+]=137 mM; [K^+]=5 mM—line 1) or under equimolar substitution of NaCl by KCl ([Na^+]=14 mM; [K^+]=128 mM—line 2) with or without 1 mM ouabain and then for an additional 6 hours in the same media with or without CS. Intracellular Na^+ and K^+ content was measured as steady-state distribution of isotopes after 24 hours preincubation of cells in control Na^+-enriched solution containing 0.5 μCi/ml ^86Rb or 2 μCilml ^22Na, and additional 6 hours incubation in Na^+—(line 1) or K^+—(line 2) enriched medium, containing 10% CS and isotopes with the same specific activity with or without 1 mM ouabain. For more details see Experimental Procedures. Mean values±S.E. obtained in 3 experiments performed in triplicate (ion content) or quadruplicate (chromatin cleavage) are given. ★p<0.001 compared to ouabain-untreated cells.
# (§2) Intracellular Na^+ and K^+ content. The intracellular content of exchangeable Na^+ and K^+ was measured as steady-state distribution of extra- and intracellular ^22Na and ^86Rb, as described previously in detail (22). Briefly, to establish the steady-state distribution of isotopes, VSMC growing in 12× (^22Na) or 24× (^86Rb) well plates or ˜10^6 Jurkat cells in suspension were preincubated for 24 hours in DMEM containing 10% calf serum and 0.5 μCi/ml ^86RbCl or 2 μCi/ml ^22NaCl and then treated in media with compositions shown in FIG. 1 and Tables 3 and 4 and with the same specific radioactivity. At the end of incubation, the VSMC were transferred on ice, washed 4 times with 2 ml of ice-cold medium W, containing 100 mM MgCl2 and 10 mM HEPES-tris buffer (pH 7.4), and lysed with SDS/EDTA mixture. One ml of Jurkat cell suspension was applied on a Whatman type C filter with the cells being washed with 3×5 ml aliquots of ice-cold medium W under negative pressure of 20-30 mm Hg. Radioactivity of the incubation medium and cell lysate was measured with a liquid scintillation analyzer and intracellular cation content was determined as A/am, where A was the radioactivity of the samples (cpm), a was the specific radioactivity of Na^+ and K^+(^86Rb) in the medium (cpm/nmol), and m was the protein content determined by Lowry methods.
# Jurkat cells = assay: Intracellular Na+ and K+ content in Jurkat cells; assay type: cell-based, human; conditions: for Intracellular cations K^+i / Intracellular cations Na^+i: ouabain-treated Jurkat cells, 1 mM, 6 hours
# Description: as §1
# To estimate chromatin cleavage, cells were incubated for 2 hours in the presence of 10% calf serum in the control solution (DMEM, [Na^+]=137 mM; [K^+]=5 mM—line 1) or under equimolar substitution of NaCl with KCl ([Na^+]=14 mM; [K^+]=128 mM—line 2) with or without 1 mM ouabain and then for an additional 7 hours at the same media with or without 100 ng/ml Fas ligand (Fas-L). Intracellular Na^+ and K^+ content was measured as steady-state distribution of isotopes after 24 hours preincubation of cells in control Na^+-enriched solution containing 0.5 μCi/ml ^86Rb or 2 μCi/ml ^22Na, and an additional 6 hours incubation in Na^+—(line 1) or K^+—(line 2) enriched medium containing 10% calf serum, isotopes with the same specific activity with or without 1 mM ouabain. For more details see Experimental Procedures. Mean values±S.E. obtained in experiments performed in triplicate are given. ★, #p<0.01 and 0.001 compared to ouabain-untreated cells.
# as §2
# VSMC-E1A [2] = assay: 3'-end DNA labeling / DNA laddering in VSMC-E1A; assay type: cell-based, rat; conditions: 1 mM ouabain, serum deprivation
# Description: FIG. 3. Effect of ouabain on morphology (A) and DNA laddering (B and C) in VSMC-E1A. In experiments with ouabain, cells were pretreated with 1 mM of this compound 1 hour before 6 hours exposure to serum-free medium. A. Cell morphology was evaluated by phase contrast microscopy without preliminary fixation. a, c) DMEM containing 10% calf serum; b, d) serum-free DMEM; a, b) without ouabain; c, d) in the presence of ouabain. Micro graphs were prepared using a Nikon phase contrast microscope at ×100 magnification. Apoptotic cells are shown by arrows. B. DNA laddering (left part of the figure) was analyzed with a PhosphorImager, and relative content of low molecular weight DNA fragments (1,500−125 bp−right part of the figure) in cells incubated with 10% calf serum (CS) in the absence of ouabain was taken as 100%. Means±S.E. obtained in 2 experiments performed in triplicate are shown.
# 3′-end DNA labeling. VSMC-E1A seeded in 75 cm^2 flasks were treated with 4 ml of lysis buffer containing 50 mM tris-HCI, 20 mM EDTA (pH 8.0), 0.5% SDS and 500 μg/ml proteinase K. The lysate was incubated at 50° C. for 3 hours, mixed with 250 μg/ml RNAase A and incubated for 1 hour at 37° C. […] After 1 hour incubation at 37° C., the aliquots were loaded on 1.5% agarose gel, run at 100 V for 3 to 4 hours, transferred onto a nylon membrane (Hybond N+, Amersham), and analyzed with a PhosphorImager. […]
# VSMC [3] = assay: ATP content in VSMC; conditions: 8 hours incubation with ouabain, data not shown
# VSMC [4] = assay: Protein synthesis in VSMC; conditions: 8 hours incubation with ouabain, data not shown
structure (smiles),measurement,setting,value
"C[C@@H]1O[C@@H](O[C@H]2C[C@@H](O)[C@]3(CO)[C@H]4[C@H](O)C[C@]5(C)[C@@H](C6=CC(=O)OC6)CC[C@]5(O)[C@@H]4CC[C@]3(O)C2)[C@H](O)[C@H](O)[C@H]1O [Ouabain, 1β,3β,5,11α,14,19-hexahydroxycard 20 [22]-enolide 3-[6-deoxy-α-L-mannopyrano-sidel]]",intracellular Na^+ content,"VSMC-E1A [1]; VSMC-E1A, after 2 hours of 1 mM ouabain (from 38±8)",283±30 nmol/mg proteins
same,K^+i content,"VSMC-E1A [1]; VSMC-E1A, after 2 hours of 1 mM ouabain (from 405±41)",131±19 nmol/mg proteins
same,Na^+i and K^+i content on prolongation of incubation,"VSMC-E1A [1]; VSMC-E1A, ouabain for up to 5 hours versus 2 hours",did not significantly modify
same,Intracellular cations K^+i,"VSMC-E1A [1]; medium [Na+]o=14, [K+]o=128 mM",293 nmol/mg prot
same,Intracellular cations Na^+i,"VSMC-E1A [1]; medium [Na+]o=14, [K+]o=128 mM",51 nmol/mg prot
same,Intracellular cations K^+i,"VSMC-E1A [1]; medium [Na+]o=137, [K+]o=5 mM",99 nmol/mg prot
same,Intracellular cations Na^+i,"VSMC-E1A [1]; medium [Na+]o=137, [K+]o=5 mM",312 nmol/mg prot
same,increase of the content of intracellular Na^+,"Jurkat cells; ouabain treated Jurkat lymphocytes, 1 mM (FIG. 1, curve 2)",10 fold
same,Intracellular cations K^+i,"Jurkat cells; medium [Na+]o=14, [K+]o=128 mM",498 nmol/mg protein
same,Intracellular cations Na^+i,"Jurkat cells; medium [Na+]o=14, [K+]o=128 mM",204 nmol/mg protein
same,Intracellular cations K^+i,"Jurkat cells; medium [Na+]o=137, [K+]o=5 mM",107 nmol/mg protein
same,Intracellular cations Na^+i,"Jurkat cells; medium [Na+]o=137, [K+]o=5 mM",1137 nmol/mg protein
same,DNA laddering and low molecular weight 3'-end labeled DNA fragments,VSMC-E1A [2],prevented DNA laddering
same,ATP content,VSMC [3],did not observe any significant effect
same,protein synthesis,VSMC [4],did not observe any significant effect
